According to patent US6737383B1, “Herbicidal oxadiazolidines” (priority 1999, dated 2004):

Tests used:
morningglory = test: Test B pre/postemergence morningglory; assay type: in vivo, Ipomoea hederacea; conditions: for Morningglory plant response rating: scale 0 to 10
Method in brief: (§1)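 Response is a visual 0-to-10 score relative to untreated plants, where 0 means no effect and 10 means complete control, taken twelve to sixteen days after application. Treatments went onto soil at planting and onto foliage of 1- to 4-leaf plants, using a surfactant-containing non-phytotoxic solvent.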

pigweed = test: Test B pre/postemergence pigweed; assay type: in vivo, Amaranthus retroflexus
Method in brief: as §1

rape = test: Test B pre/postemergence rape; assay type: in vivo, Brassica napus
Method in brief: as §1

sugar beet = test: Test B pre/postemergence sugar beet; assay type: in vivo, Beta vulgaris
Method in brief: as §1

wheat = test: Test B pre/postemergence wheat; assay type: in vivo, Triticum aestivum
Method in brief: as §1

wild oat = test: Test B pre/postemergence wild oat; assay type: in vivo, Avena fatua
Method in brief: as §1

purple nutsedge = test: Test B pre/postemergence purple nutsedge; assay type: in vivo, Cyperus rotundus
Method in brief: as §1

rice = test: Test B flood test rice; assay type: in vivo, Oryza sativa
Method in brief: (§2)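 Read-out is a visual response score from 0 (no effect) to 10 (complete control), assigned by comparison with untreated controls. Treatment was applied at the 2-leaf stage, and plants stayed in the greenhouse for twelve to sixteen days before scoring.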

bamyardgrass = test: Test B flood test barnyardgrass; assay type: in vivo, Echinochloa crus-galli
Method in brief: as §2

[1] = Rate 250 g/ha, Postemergence, scale 0 to 10, 0 is no effect, 10 is complete control
[2] = Rate 1000 g/ha, Preemergence, scale 0 to 10 (0 no effect, 10 complete control)
[3] = Postemergence, Rate 125 g/ha, scale of 0 to 10 where 0 is no effect and 10 is complete control
[4] = Postemergence, Rate 1000 g/ha, scale 0 to 10 (0 no effect, 10 complete control)
[5] = Preemergence, Rate 62 g/ha, scale of 0 to 10 where 0 is no effect and 10 is complete control
[6] = Preemergence, Rate 125 g/ha, 0 is no effect, 10 is complete control
[7] = Preemergence, Rate 250 g/ha, scale 0 to 10, 0 is no effect, 10 is complete control
[8] = Preemergence, Rate 500 g/ha, scale 0 to 10 (0 no effect, 10 complete control)
[9] = Rate 62 g/ha, Postemergence, scale of 0 to 10 where 0 is no effect and 10 is complete control
[10] = Rate 500 g/ha, Postemergence, scale 0 to 10
[11] = Rate 2000 g/ha, Postemergence, scale 0 to 10
[12] = Rate 2000 g/ha, Preemergence, scale 0 to 10
[13] = Postemergence (flood test species), Rate 125 g/ha, scale of 0 to 10 where 0 is no effect and 10 is complete control
[14] = Rate 62 g/ha, Postemergence section, flood test species, scale of 0 to 10 where 0 is no effect and 10 is complete control
[15] = Rate 250 g/ha, Postemergence (flood test), scale 0 to 10, 0 is no effect, 10 is complete control
[16] = Rate 250 g/ha, Pre-emergence, flood-test species, scale 0 to 10, 0 is no effect, 10 is complete control
[17] = Rate 500 g/ha, headed Pre-emergence (flood test species), scale 0 to 10 (0 no effect, 10 complete control)
[18] = Rate 500 g/ha, listed under Postemergence (flood test species), scale 0 to 10
[19] = Rate 1000 g/ha, Pre-emergence (as headed), scale 0 to 10

CC(C)N(C(=O)n1oc(=O)n(N(C)c2ccccc2)c1=O)c1ccc(F)cc1 [Compound 177]
Plant response rating, Morningglory (morningglory; [1]): 2
Morningglory plant response rating (morningglory; Rate 500 g/ha, Postemergence): 4
Plant response rating, Morningglory (morningglory; [2]): 0
Morningglory plant response rating (morningglory; Rate 2000 g/ha, Postemergence): 1
Morningglory plant response rating (morningglory; Rate 2000 g/ha, Preemergence): 0
Redroot pigweed plant response rating (pigweed; [3]): 0
Redroot pigweed plant response rating (pigweed; [4]): 2
Redroot pigweed plant response rating (pigweed; [5]): 0
Redroot pigweed plant response rating (0 to 10 scale) (pigweed; [6]): 0
Redroot pigweed plant response rating (pigweed; [7]): 0
Redroot pigweed plant response rating (pigweed; [8]): 0
Redroot pigweed plant response rating (pigweed; [9]): 0
Plant response rating, Redroot pigweed (pigweed; [1]): 0
Redroot pigweed plant response rating (pigweed; [10]): 3
Plant response rating, Redroot pigweed (pigweed; [2]): 0
Redroot pigweed plant response rating (pigweed; [11]): 3
Redroot pigweed plant response rating (pigweed; [12]): 0
Rape plant response rating (rape; [3]): 0
Rape plant response rating (rape; [4]): 0
Rape plant response rating (rape; [5]): 0
Rape plant response rating (0 to 10 scale) (rape; [6]): 0
Rape plant response rating (rape; [7]): 0
Rape plant response rating (rape; [8]): 0
Rape plant response rating (rape; [9]): 0
Plant response rating, Rape (rape; [1]): 0
Rape plant response rating (rape; [10]): 0
Plant response rating, Rape (rape; [2]): 0
Rape plant response rating (rape; [11]): 3
Rape plant response rating (rape; [12]): 0
Sugarbeets plant response rating (sugar beet; [3]): 0
Sugarbeets plant response rating (sugar beet; [4]): 0
Sugarbeets plant response rating (sugar beet; [5]): 0
Sugarbeets plant response rating (0 to 10 scale) (sugar beet; [6]): 0
Sugarbeets plant response rating (sugar beet; [7]): 0
Sugarbeets plant response rating (sugar beet; [8]): 0
Sugarbeets plant response rating (sugar beet; [9]): 0
Plant response rating, Sugarbeets (sugar beet; [1]): 0
Sugarbeets plant response rating (sugar beet; [10]): 0
Plant response rating, Sugarbeets (sugar beet; [2]): 0
Sugarbeets plant response rating (sugar beet; [11]): 0
Sugarbeets plant response rating (sugar beet; [12]): 0
Wheat plant response rating (wheat; [4]): 3
Wheat plant response rating (wheat; [5]): 0
Wheat plant response rating (0 to 10 scale) (wheat; [6]): 0
Wheat plant response rating (wheat; [7]): 0
Wheat plant response rating (wheat; [8]): 0
Plant response rating, Wheat (wheat; [1]): 0
Wheat plant response rating (wheat; [10]): 4
Plant response rating, Wheat (wheat; [2]): 0
Wheat plant response rating (wheat; [11]): 3
Wheat plant response rating (wheat; [12]): 2
Wild oats plant response rating (wild oat; [4]): 2
Wild oats plant response rating (wild oat; [5]): 0
Wild oats plant response rating (0 to 10 scale) (wild oat; [6]): 0
Wild oats plant response rating (wild oat; [7]): 0
Wild oats plant response rating (wild oat; [8]): 2
Plant response rating, Wild oats (wild oat; [1]): 0
Wild oats plant response rating (wild oat; [10]): 0
Plant response rating, Wild oats (wild oat; [2]): 10
Wild oats plant response rating (wild oat; [11]): 2
Wild oats plant response rating (wild oat; [12]): 10
Nutsedge plant response rating (purple nutsedge; [3]): 0
Nutsedge plant response rating (purple nutsedge; [4]): 0
Nutsedge plant response rating (purple nutsedge; [5]): 0
Nutsedge plant response rating (0 to 10 scale) (purple nutsedge; [6]): 0
Nutsedge plant response rating (purple nutsedge; [7]): 0
Nutsedge plant response rating (purple nutsedge; [8]): 0
Nutsedge plant response rating (purple nutsedge; [9]): 0
Plant response rating, Nutsedge (purple nutsedge; [1]): 0
Nutsedge plant response rating (purple nutsedge; [10]): 0
Plant response rating, Nutsedge (purple nutsedge; [2]): 0
Nutsedge plant response rating (purple nutsedge; [11]): 0
Nutsedge plant response rating (purple nutsedge; [12]): 0
Rice plant response rating (rice; [13]): 0
Rice plant response rating (rice; [14]): 0
Plant response rating, Rice (rice; [15]): 0
Rice plant response rating (rice; [16]): 0
Plant response rating, Rice (rice; [17]): 0
Rice plant response rating (rice; [18]): 0
Rice plant response rating (rice; [19]): 0
Rice plant response rating (rice; Rate 2000 g/ha, Pre-emergence (as headed), scale 0 to 10): 0
Barnyardgrass plant response rating (bamyardgrass; [13]): 0
Barnyardgrass plant response rating (bamyardgrass; [14]): 0
Plant response rating, Barnyardgrass (bamyardgrass; [15]): 0
Barnyardgrass plant response rating (bamyardgrass; [16]): 0
Plant response rating, Barnyardgrass (bamyardgrass; [17]): 0
Barnyardgrass plant response rating (bamyardgrass; [18]): 0
Barnyardgrass plant response rating (bamyardgrass; [19]): 0
Barnyardgrass plant response rating (bamyardgrass; Rate 2000 g/ha, Pre-emergence (as headed), scale 0 to 10, 0 no effect, 10 complete control): 0
